Columns and labels:
R6/2 mice = settings: cited from earlier work
A2AR = molecular target: T1, A2AR (Rattus norvegicus, UniProt P30543); assay: cAMP assay in PC12 cells; assay type: cell-based; settings: PC12 cells, T1-11 10 µM, SCH 1 µM, 20 min
T1 construct: Treatment of PC12 cells with T1-11 dose-dependently elevated the cellular cAMP levels; endogenous in cells; host or cells: PC12
Procedure: PC12 cells were plated at the density of 5×10^5 cells/well (on 12-well plates) and incubated with the indicated reagent(s) for the desired period of time. Cells were washed twice with ice-cold Locke's solution (150 mM NaCl, 5.6 mM KCl, 5 mM glucose, 1 mM MgCl2, and 10 mM HEPES, adjusted to pH 7.4). Cellular cAMP was extracted by adding 0.3 ml of 0.1 M HCl to each well and incubating this for 10 min on ice.

PC12 cells = assay: MTT metabolism assay, serum-deprived PC12 cells; assay type: cell-based, rat; settings: 24 h
Procedure: Survival was assessed by the 3-(4,5-dimethylthiazol-2-yl)-2,5-diphenyltetrazolium bromide (MTT) metabolism assay as described elsewhere, [65]. In brief, cells grown on 150-mm plates were washed three times with PBS and resuspended in DMEM. Suspended cells (1×10^4 cells) were plated on 96-well plates and treated with or without the indicated reagent. After incubation for 24 h, MTT (0.5 mg/ml) was added to the medium and incubated for 3 h. After discarding the medium, DMSO (100 µl) was then applied to the well to dissolve the formazan crystals derived from the mitochondrial cleavage of the tetrazolium ring by live cells. The absorbance at 570/630 nm in each well was measured on a micro-enzyme-linked immunosorbent assay reader.

[1] = molecular target: Adenosine transporter (ENT1); settings: ENT1 inhibitor reference value; no reference given; cited from earlier work

T1 sequence (P30543 whole entry): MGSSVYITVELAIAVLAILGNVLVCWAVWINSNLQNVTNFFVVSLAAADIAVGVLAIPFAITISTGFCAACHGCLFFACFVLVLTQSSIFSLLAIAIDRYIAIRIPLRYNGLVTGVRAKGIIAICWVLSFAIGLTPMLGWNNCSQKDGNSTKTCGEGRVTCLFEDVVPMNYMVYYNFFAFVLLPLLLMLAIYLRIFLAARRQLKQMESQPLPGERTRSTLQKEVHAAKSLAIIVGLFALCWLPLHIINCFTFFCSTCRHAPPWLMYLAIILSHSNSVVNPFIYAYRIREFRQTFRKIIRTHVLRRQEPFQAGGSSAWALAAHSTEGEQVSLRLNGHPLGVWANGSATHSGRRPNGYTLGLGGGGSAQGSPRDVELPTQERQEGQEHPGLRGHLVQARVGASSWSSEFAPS

With `CCNC(=O)[C@H]1O[C@@H](n2cnc3c(N)nc(NCCc4ccc(CCC(=O)O)cc4)nc32)[C@H](O)[C@@H]1O` [CGS] as the compound, how does the “Effects on major HD symptoms (brain atrophy, striatal aggregates, deteriorated motor coordination)” value (R6/2 mice) read?
Its value is “provides beneficial effects on several major HD symptoms”.

For `Nc1nc2c(cnn2CCc2ccccc2)c2nc(-c3ccco3)nn12` [SCH58216], which Motor coordination (R6/2 mice; treatment for 1 week) is on record?
The Motor coordination was “worsened motor coordination”.

What about the “Effect on T1-11-induced elevation in the cAMP level” value (A2AR) of the same compound?
The value was “effectively blocked the T1-11-induced elevation in the cAMP level”.

And the “Effect of A2AR antagonist on T1-11's prevention of serum deprivation-induced death” value (PC12 cells)?
The value was “blocked the effect of T1-11”.

Which “Effect of A2AR antagonist on T1-11's prevention of serum deprivation-induced death” value (PC12 cells) does the source give for `Nc1nc(NCCc2ccc(O)cc2)nc2nc(-c3ccco3)nn12` [ZM241385] here?
The value was “blocked the effect of T1-11”.

With `O=[N+]([O-])c1ccc(CSc2ncnc3c2ncn3[C@@H]2O[C@H](CO)[C@@H](O)[C@H]2O)cc1` [NBTI, 6-[(4-nitrobenzyl)thio]-9-β-D-ribofuranosylpurine] as the compound, how does the Ki [1] read?
The Ki was 0.85 nM.
